Patent US9738655B2, “Tetrahydroisoquinolines containing substituted azoles as factor XIa inhibitors” (BRISTOL-MYERS SQUIBB COMPANY, priority 2013, dated 2017)
Where a name gives a salt, the structure may show the parent alone. Read-outs that look alike come from different tables or passages of the source.

Tests used:
[1] = target: purified human plasma kallikrein (Homo sapiens (Human), UniProt P03952); assay: Plasma kallikrein enzyme inhibition assay (chromogenic substrate S-2302); assay type: biochemical
purified human plasma kallikrein, sequence (P03952 391-638): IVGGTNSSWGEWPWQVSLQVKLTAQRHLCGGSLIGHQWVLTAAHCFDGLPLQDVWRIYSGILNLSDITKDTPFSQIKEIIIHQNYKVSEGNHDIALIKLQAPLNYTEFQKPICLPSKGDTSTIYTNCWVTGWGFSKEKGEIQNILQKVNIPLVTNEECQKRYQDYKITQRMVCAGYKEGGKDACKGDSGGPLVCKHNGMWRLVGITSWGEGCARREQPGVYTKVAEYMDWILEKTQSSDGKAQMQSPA
purified human plasma kallikrein, sequence (P03952 20-390 partner): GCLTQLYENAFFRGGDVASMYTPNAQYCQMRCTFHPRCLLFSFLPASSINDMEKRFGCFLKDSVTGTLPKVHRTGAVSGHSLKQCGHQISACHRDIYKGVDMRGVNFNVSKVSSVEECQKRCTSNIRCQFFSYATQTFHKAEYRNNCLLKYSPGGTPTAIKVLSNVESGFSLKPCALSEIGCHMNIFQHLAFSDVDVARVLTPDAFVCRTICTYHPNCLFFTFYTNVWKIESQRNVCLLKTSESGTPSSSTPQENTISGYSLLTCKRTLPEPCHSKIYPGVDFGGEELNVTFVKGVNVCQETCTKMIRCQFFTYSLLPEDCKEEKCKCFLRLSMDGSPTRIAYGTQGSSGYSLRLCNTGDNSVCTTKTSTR

[2] = target: purified human Factor XIa (Homo sapiens (Human), UniProt P03951); assay: Factor XIa enzyme inhibition assay (chromogenic substrate S-2366)
purified human Factor XIa, sequence (P03951 388-625): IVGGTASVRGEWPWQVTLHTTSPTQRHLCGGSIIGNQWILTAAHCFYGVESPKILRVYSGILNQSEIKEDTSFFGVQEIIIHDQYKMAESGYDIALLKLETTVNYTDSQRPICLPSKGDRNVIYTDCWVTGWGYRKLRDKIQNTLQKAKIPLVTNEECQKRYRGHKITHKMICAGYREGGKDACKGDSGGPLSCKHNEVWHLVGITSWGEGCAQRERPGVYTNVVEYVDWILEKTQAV
purified human Factor XIa, sequence (P03951 19-387 partner): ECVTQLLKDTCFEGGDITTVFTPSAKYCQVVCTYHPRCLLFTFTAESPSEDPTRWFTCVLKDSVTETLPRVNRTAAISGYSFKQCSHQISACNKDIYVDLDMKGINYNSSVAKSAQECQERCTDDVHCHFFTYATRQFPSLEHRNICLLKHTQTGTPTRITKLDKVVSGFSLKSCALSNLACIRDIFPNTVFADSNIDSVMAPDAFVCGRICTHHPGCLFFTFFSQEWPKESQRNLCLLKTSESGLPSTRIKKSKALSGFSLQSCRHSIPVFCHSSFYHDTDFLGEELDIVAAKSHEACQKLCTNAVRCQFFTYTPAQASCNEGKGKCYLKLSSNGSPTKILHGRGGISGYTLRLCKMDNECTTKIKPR

[3] = measured at 25° C. (no asterisk)
[4] = read-out: Factor XIa Ki, measured at 25° C.

For Cn1ncc2cc(-c3cccc4c3CCN(C(=O)c3cn(-c5cccc(Cl)c5F)nn3)C4C(=O)Nc3ccc(C(=O)O)cc3)ccc21 (stereo not drawn) [Example 156, 4-(2-(1-(3-chloro-2-fluorophenyl)-1H-1,2,3-triazole-4-carbonyl)-5-(1-methyl-1H-indazol-5-yl)-1,2,3,4-tetrahydroisoquinoline-1-carboxamido)benzoic acid], the Ki [1, 3] was 0.0301 µM and the Ki [2, 4] was under 0.005 µM.

O=C(Nc1ccc(-c2ncc[nH]2)cc1)C1c2cccc(-c3cncnc3)c2CCN1C(=O)c1cn(-c2cccc(Cl)c2F)cn1 (stereo not drawn) [Example 137, N-(4-(1H-Imidazol-2-yl)phenyl)-2-(1-(3-chloro-2-fluorophenyl)-1H-imidazole-4-carbonyl)-5-(pyrimidin-5-yl)-1,2,3,4-tetrahydroisoquinoline-1-carboxamide, 2 TFA] gave a Ki ([1]; measured at 37° C. (*)) of 0.0534 µM and a Ki [2, 4] of under 0.005 µM.

Compound CC(C)c1nnc2n1CCN(c1cccc3c1CCN(C(=O)c1cn(-c4cccc(Cl)c4F)nn1)[C@H]3C(=O)Nc1ccc(C(=O)O)cc1)C2 [Example 65, (R)-4-(2-(1-(3-chloro-2-fluorophenyl)-1H-1,2,3-triazole-4-carbonyl)-5-(3-isopropyl-5,6-dihydro-[1,2,4]triazolo[4,3-a]pyrazin-7(8H)-yl)-1,2,3,4-tetrahydroisoquinoline-1-carboximido)benzoic acid, TFA salt] has a Ki [1, 3] of 0.26 µM and a Ki [2, 4] of 0.0189 µM.

Compound COC1CCN(c2cccc3c2CCN(C(=O)[C@H]2CC(c4cccc(Cl)c4F)=NO2)[C@H]3C(=O)Nc2cccnc2)CC1 (single isomer, unassigned) [Example 242, TFA salt] has a Ki ([1]; measured at 37° C. (*)) of 1.23 µM and a Ki [2] of 0.188 µM.

In the case of COC(=O)c1ccc(NC(=O)[C@H]2c3cccc(-c4cncnc4)c3CCN2C(=O)c2cn(-c3cccc(Cl)c3F)nn2)cc1 [Example 25, (R)-Methyl 4-(2-(1-(3-chloro-2-fluorophenyl)-1H-1,2,3-triazole-4-carbonyl)-5-(pyrimidin-5-yl)-1,2,3,4-tetrahydroisoquinoline-1-carboxamido)benzoate], the Ki ([1]; measured at 37° C. (*)) is reported as over 4.34 µM and the Ki [2, 4] is reported as 3.55 µM.

O=C(O)c1ccc(NC(=O)[C@@H]2c3cccc(N4CCC(N5CCCC5=O)CC4)c3CCN2C(=O)[C@H]2CC(c3cccc(Cl)c3F)=NO2)cc1 (single isomer, unassigned) [Example 207, TFA salt] showed a Ki [1, 3] of 0.0309 µM and a Ki [2] of under 0.005 µM.

Compound CN(C)C1CCN(c2cccc3c2CCN(C(=O)c2cnn(-c4cccc(Cl)c4F)c2)[C@H]3C(=O)Nc2ccc(C(=O)O)cc2)CC1 (single isomer, unassigned) [Example 51, bis-TFA salt] has a Ki [1, 3] of 0.34 µM and a Ki [2, 4] of 0.0545 µM.

Work on CN(C)C1CCN(c2cccc3c2CCN(C(=O)c2cn(-c4cccc(Cl)c4F)nn2)[C@H]3C(=O)Nc2ccc(C(=O)O)cc2)CC1 [Example 48, (R)-4-(2-(1-(3-chloro-2-fluorophenyl)-1H-1,2,3-triazole-4-carbonyl)-5-(4-(dimethylamino)piperidin-1-yl)-1,2,3,4-tetrahydroisoquinoline-1-carboxamido)benzoic acid, bis-TFA salt] yielded a Ki [1, 3] of 0.452 µM and a Ki [2] of 0.0896 µM.

Work on O=C(O)c1ccc(NC(=O)C2c3cccc(N4CCCCC4)c3CCN2C(=O)c2cn(-c3cccc(Cl)c3F)nn2)cc1 (stereo not drawn) [Example 78, 4-(2-(1-(3-chloro-2-fluorophenyl)-1H-1,2,3-triazole-4-carbonyl)-5-(piperidin-1-yl)-1,2,3,4-tetrahydroisoquinoline-1-carboxamido)benzoic acid, TFA salt] yielded a Ki [1, 3] of 0.0362 µM and a Ki [2, 4] of 0.00916 µM.

Compound CCOC(=O)c1ccc(NC(=O)C2c3cccc(N4CCC(N5CCCC5)CC4)c3CCN2C(=O)c2cn(-c3cccc(Cl)c3F)nn2)cc1 (stereo not drawn) [Example 219, Ethyl 4-(2-(1-(3-chloro-2-fluorophenyl)-1H-1,2,3-triazole-4-carbonyl)-5-(4-(pyrrolidin-1-yl)piperidin-1-yl)-1,2,3,4-tetrahydroisoquinoline-1-carboxamido)benzoate, 2 TFA salt] has a Ki [1, 3] of 0.00196 µM and a Ki [2, 4] of under 0.005 µM.

COC1CCN(c2cccc3c2CCN(C(=O)c2ccnc(-c4cccc(Cl)c4F)c2)C3C(=O)Nc2ccc(C(=O)O)cc2)CC1 (stereo not drawn) [Example 324, 4-(2-(2-(3-Chloro-2-fluorophenyl)isonicotinoyl)-5-(4-methoxypiperidin-1-yl)-1,2,3,4-tetrahydroisoquinoline-1-carboxamido)benzoic acid, 2 TFA salt] gave a Ki [1, 3] of 0.958 µM and a Ki [2, 4] of 0.0372 µM.

Cn1cnc(-c2cccc3c2CCN(C(=O)c2cn(-c4cccc(Cl)c4F)nn2)C3C(=O)Nc2ccc(C(=O)O)cc2)c1 (stereo not drawn) [Example 246, 4-(2-(1-(3-Chloro-2-fluorophenyl)-1H-1,2,3-triazole-4-carbonyl)-5-(1-methyl-1H-imidazol-4-yl)-1,2,3,4-tetrahydroisoquinoline-1-carboxamido)benzoic acid, TFA salt] was tested, and the Ki ([1]; measured at 37° C. (*)) was 0.0297 µM and the Ki [2, 4] was under 0.005 µM.

For CO[C@@H]1CCN(c2cccc3c2CCN(C(=O)c2cn(-c4cccc(Cl)c4F)nn2)C3C(=O)Nc2ccc(C(=O)O)cc2)C1 (mixture of isomers) [Example 84, 4-(2-(1-(3-chloro-2-fluorophenyl)-1H-1,2,3-triazole-4-carbonyl)-5-((R)-3-methoxypyrrolidin-1-yl)-1,2,3,4-tetrahydroisoquinoline-1-carboxamido)benzoic acid, TFA salt], the Ki [1, 3] was 0.0158 µM and the Ki [2, 4] was under 0.005 µM.

O=C(O)c1ccc(NC(=O)C2c3cccc(N4CCC(N5CCCC5=O)CC4)c3CCN2C(=O)c2cn(-c3cccc(Cl)c3F)nn2)cc1 (stereo not drawn) [Example 72, 4-(2-(1-(3-chloro-2-fluorophenyl)-1H-1,2,3-triazole-4-carbonyl)-5-(4-(2-oxopyrrolidin-1-yl)piperidin-1-yl)-1,2,3,4-tetrahydroisoquinoline-1-carboxamido)benzoic acid, TFA salt] gave a Ki [1, 3] of 0.0138 µM and a Ki [2, 4] of under 0.005 µM.

In the case of COC1CCN(c2cccc3c2CCN(C(=O)C2CC(c4c(F)ccc(Cl)c4F)=NO2)C3C(=O)Nc2ccc(C(=O)O)cc2)CC1 (stereo not drawn) [Example 256, 4-(2-(3-(3-chloro-2,6-difluorophenyl)-4,5-dihydroisoxazole-5-carbonyl)-5-(4-methoxypiperidin-1-yl)-1,2,3,4-tetrahydroisoquinoline-1-carboxamido)benzoic acid, TFA salt], the Ki ([1]; measured at 25° C. (no asterisk), TFA salt) is reported as 0.198 µM and the Ki ([2]; read-out: Factor XIa Ki, measured at 25° C., TFA salt) is reported as 0.0125 µM.

COC1CCN(c2cccc3c2CCN(C(=O)c2cc(-c4cccc(Cl)c4)n[nH]2)C3C(=O)Nc2ccc(C(=O)O)cc2)CC1 (racemic) [Example 311, 4-(2-(3-(3-chlorophenyl)-1H-pyrazole-5-carbonyl)-5-(4-methoxypiperidin-1-yl)-1,2,3,4-tetrahydroisoquinoline-1-carboxamido)benzoic acid, TFA salt] showed a Ki [1, 3] of 0.787 µM and a Ki [2] of 0.0185 µM.

Compound O=C(O)c1ccc(NC(=O)C2c3cccc(-c4cncc(F)c4)c3CCN2C(=O)c2cn(-c3cccc(Cl)c3F)nn2)cc1 (stereo not drawn) [Example 35, 4-(2-(1-(3-chloro-2-fluorophenyl)-1H-1,2,3-triazole-4-carbonyl)-5-(5-fluoropyridin-3-yl)-1.2,3,4-tetrahydroisoquinoline-1-carboxamido)benzoic acid, TFA salt] has a Ki [1, 3] of 0.0229 µM and a Ki [2, 4] of under 0.005 µM.

O=C(O)c1ccc(NC(=O)C2c3cccc(N4CCC(N5CCCC5=O)CC4)c3CCN2C(=O)c2cn(-c3cccc(Cl)c3F)cn2)cc1 (stereo not drawn) [Example 92, 4-(2-(1-(3-Chloro-2-fluorophenyl)-1H-imidazole-4-carbonyl)-5-(4-(2-oxopyrrolidin-1-yl)piperidin-1-yl)-1,2,3,4-tetrahydroisoquinoline-1-carboxamido)benzoic acid, TFA salt] gave a Ki [1, 3] of 0.0056 µM and a Ki [2, 4] of under 0.005 µM.

For COc1cncc(-c2cccc3c2CCN(C(=O)c2cn(-c4cccc(Cl)c4F)nn2)C3C(=O)Nc2ccc(C(=O)O)cc2)c1 (stereo not drawn) [Example 36, 4-(2-(1-(3-chloro-2-fluorophenyl)-1H-1,2,3-triazole-4-carbonyl)-5-(5-methoxypyridin-3-yl)-1,2,3,4-tetrahydroisoquinoline-1-carboxamido)benzoic acid, TFA salt], the Ki [1, 3] was 0.0267 µM and the Ki [2, 4] was under 0.005 µM.

With COC1CCN(c2cccc3c2CCN(C(=O)c2cc(-c4c(F)ccc(Cl)c4F)no2)C3C(=O)Nc2ccc(C(=O)O)cc2)CC1 (racemic) [Example 265, 4-(2-(3-(3-chloro-2,6-difluorophenyl)isoxazole-5-carbonyl)-5-(4-methoxypiperidin-1-yl)-1,2,3,4-tetrahydroisoquinoline-1-carboxamido)benzoic acid, TFA salt] the Ki [1, 3] was 0.178 µM and the Ki [2] was 0.0132 µM.

COC1CCN(c2cccc3c2CCN(C(=O)c2cc(-c4cccc(Cl)c4F)ns2)C3C(=O)Nc2ccc(C(=O)O)cc2)CC1 (racemic) [Example 269, 4-(2-(3-(3-chloro-2-fluorophenyl)isothiazole-5-carbonyl)-5-(4-methoxypiperidin-1-yl)-1,2,3,4-tetrahydroisoquinoline-1-carboxamido)benzoic acid, TFA salt] showed a Ki [1, 3] of 0.205 µM and a Ki [2] of 0.0335 µM.

CN1CCN(c2cccc3c2CCN(C(=O)c2cncc(-c4ccccc4)c2)C3C(=O)Nc2ccc(C(=O)O)cc2)CC1 (stereo not drawn) [Example 321, 4-(5-(4-Methylpiperazin-1-yl)-2-(5-phenylnicotinoyl)-1,2,3,4-tetrahydroisoquinoline-1-carboxamido)benzoic acid] showed a Ki [1, 3] of 0.177 µM and a Ki [2, 4] of 0.236 µM.

Cn1nccc1-c1cccc2c1CCN(C(=O)c1cn(-c3cccc(Cl)c3F)nn1)C2C(=O)Nc1ccc(C(=O)O)cc1 (stereo not drawn) [Example 42, 4-(2-(1-(3-chloro-2-fluorophenyl)-1H-1,2,3-triazole-4-carbonyl)-5-(1-methyl-1H-pyrazol-5-yl)-1,2,3,4-tetrahydroisoquinoline-1-carboxamido)benzoic acid] showed a Ki [1, 3] of 0.0131 µM and a Ki [2] of under 0.005 µM.

In the case of CN(C)C1CCN(c2cccc3c2CCN(C(=O)c2cn(-c4cccc(Cl)c4F)cn2)[C@H]3C(=O)Nc2ccc(C(=O)O)cc2)CC1 (single isomer, unassigned) [Example 54, bis-TFA salt], the Ki [1, 3] is reported as 0.0504 µM and the Ki [2, 4] is reported as 0.00883 µM.
